One assay concerns Lymphocytes. As to the kind of experiment: Chemokine-induced rapid adhesion of lymphocytes to ICAM-1 (LFA-1 ligand). The format is cell-based. The conditions noted are these: Homo sapiens, Lymphocyte, read-out: Inhibition of Adhesion (%) Lymphocytes (MIP3-β) (converted); for inhibition at 25 µM: [cpd] 25 μM; for inhibition at 50 µM: [cpd] 50 μM; for inhibition at 100 µM: [cpd] 100 μM. The protocol: (§1) Adhesion was performed on purified integrin ligands and was evaluated as reported in Constantin G. et al., Immunity, 16, 759-769, 2000. Briefly, primary naïve lymphocytes, polymorphonuclear neutrophils (PMNs) or monocytes were isolated form healthy donors. In other experiments, murine autoreactive T cells were obtained from SJL mice immunized with PLP139-151 as described (Piccio L. et al., J. Immunol. 168, 1940-1949, 2002). Cells were resuspended at 4×10^6/ml in PBS, CaCl2, MgCl2 1 mM, 10% FCS, pH 7.2. Adhesion assays were performed on eighteen well glass slides coated overnight at 4° C. with ligands for CR3 (fibrinogen) or LFA-1 (ICAM-1). 20 μl of cell suspension were added to the wells and stimulated at 37° C. with 5 μl of agonists prior to washing, fixation and computer-assisted enumeration of bound cells.
(§2) Integrin activation was measured as induction of rapid adhesion triggered by the classical chemoattractant N-formyl-L-methionyl-L-leucyl-phenylalanine (fMLP) (100 nM) or by the CC chemokine MIP3β (CCL19, 1 μM). PMNs and monocytes were triggered to adhere to fibrinogen (CR3 ligand); naive human lymphocytes or murine encephalitogenic T cells were triggered to adhere to ICAM-1 (LFA-1 ligand). Triggered adhesion was evaluated after 2 min of stimulation under static conditions. The cells were pretreated at 37° C. for 30-60 min with the indicated concentrations of the test compound. Results are expressed as percentage of inhibition over control (=100%) and are the mean of three experiments in the case of human leukocytes. Results are expressed as mean counts and are the mean counts±S.D of three experiments and are the mean of three experiments in the case of murine encephalitogenic lymphocytes.
(§3) Integrin activation was measured as induction of rapid adhesion triggered by the “classical” chemoattractant fMLP (100 nM) or by the CC chemokine MIP3β(CCL19, 1 μM). PMNs were triggered to adhere to fibrinogen (CR3 ligand); lymphocytes were triggered to adhere to ICAM-1 (LFA-1 ligand).

Another assay deals with PMNs. As to the kind of experiment: Chemoattractant-induced rapid adhesion of PMNs to fibrinogen (CR3 ligand). The format is cell-based. Particulars: Homo sapiens, read-out: Inhibition of Adhesion (%) PMNs (fMLP) (converted); for inhibition at 25 µM: [cpd] 25 μM; for inhibition at 50 µM: [cpd] 50 μM; for inhibition at 100 µM: [cpd] 100 μM. The protocol:
as §1, §2, §3

For assay [1], the system named is encephalitogenic lymphocytes. The assay can be described thus: Chemokine-induced adhesion of murine encephalitogenic T cells to ICAM-1. The format is cell-based, murine (SJL mice). Particulars: NT control in the same cell. As to the method: as §1, §2
Chemokines trigger rapid arrest of lymphocytes in blood vessels through pertussis toxin-sensitive G protein coupled receptors. […] Autoreactive lymphocytes were then stimulated with 1 μM CCL19 (MIP-3beta) for 3 min.

Consider `COc1ccc(-c2c(C(N)=O)[nH]c3cc(OC)c(OC)cc23)cc1` [Example 14], for which, in the assay on Lymphocytes, the inhibition (usually the drop in the measured response relative to a control, in per cent) at 25 µM is 30.9%; the inhibition at 50 µM was 70.9%; the inhibition at 100 µM is 91.8%. Also, in the assay on PMNs, the inhibition at 25 µM was 62.8%, the inhibition at 50 µM was 83.9% and the inhibition at 100 µM was 94.9%.
As for `COc1ccc(-c2c(-c3nnco3)[nH]c3cc(OC)c(OC)cc23)cc1` [Example 26], in assay [1] ([cpd] 5 μM), the “Chemokine-induced Adhesion in encephalitogenic lymphocytes, Mean counts ± S.D., in absence of MIP3-β stimulation” value is reported as 93.1 ± 7.5 and the “Chemokine-induced Adhesion in encephalitogenic lymphocytes, Mean counts ± S.D., in presence of MIP3-β stimulation” value is 125.9 ± 7.2. In assay [1] ([cpd] 50 μM), the “Chemokine-induced Adhesion in encephalitogenic lymphocytes, Mean counts ± S.D., in absence of MIP3-β stimulation” value is 49.8 ± 5.9 and the “Chemokine-induced Adhesion in encephalitogenic lymphocytes, Mean counts ± S.D., in presence of MIP3-β stimulation” value was determined as 98.9 ± 12.0. Also, in the assay with Lymphocytes, the inhibition at 25 µM is 8.7%, the inhibition at 50 µM is 21.9% and the inhibition at 100 µM was 26.7%. Further, in the assay on PMNs, the inhibition at 25 µM is 34.7%, the inhibition at 50 µM is 50.5% and the inhibition at 100 µM was 57.5%.
For `COc1ccc(-c2c3n(c4cc(OC)c(OC)cc24)CCNC3)cc1` [Example 28], in assay [1] ([cpd] 5 μM), the “Chemokine-induced Adhesion in encephalitogenic lymphocytes, Mean counts ± S.D., in absence of MIP3-β stimulation” value came out at 75.7 ± 9.0 and the “Chemokine-induced Adhesion in encephalitogenic lymphocytes, Mean counts ± S.D., in presence of MIP3-β stimulation” value turned out to be 127.0 ± 5.0. In assay [1] ([cpd] 50 μM), the “Chemokine-induced Adhesion in encephalitogenic lymphocytes, Mean counts ± S.D., in absence of MIP3-β stimulation” value was 48.6 ± 2.9 and the “Chemokine-induced Adhesion in encephalitogenic lymphocytes, Mean counts ± S.D., in presence of MIP3-β stimulation” value worked out at 118.8 ± 10.8. Further, in the assay on Lymphocytes, the inhibition at 25 µM was 16.7%, the inhibition at 50 µM was 34.8% and the inhibition at 100 µM was 49.1%. For the same compound, in the assay with PMNs, the inhibition at 25 µM is 34.7%, the inhibition at 50 µM was 41% and the inhibition at 100 µM was 46.5%.
On to `COCCn1c(C(=O)OC)c(-c2ccc(OC)cc2)c2cc(OC)c(OC)cc21` [Example 39], for which, in assay [1] ([cpd] 5 μM), the “Chemokine-induced Adhesion in encephalitogenic lymphocytes, Mean counts ± S.D., in absence of MIP3-β stimulation” value was found to be 72.9 ± 8.8 and the “Chemokine-induced Adhesion in encephalitogenic lymphocytes, Mean counts ± S.D., in presence of MIP3-β stimulation” value is recorded as 118.2 ± 10.0. In assay [1] ([cpd] 50 μM), the “Chemokine-induced Adhesion in encephalitogenic lymphocytes, Mean counts ± S.D., in absence of MIP3-β stimulation” value amounted to 44.8 ± 1.9 and the “Chemokine-induced Adhesion in encephalitogenic lymphocytes, Mean counts ± S.D., in presence of MIP3-β stimulation” value is given as 104.4 ± 5.0. In the assay with Lymphocytes, the inhibition at 25 µM was 8.2%, the inhibition at 50 µM is 26.4% and the inhibition at 100 µM was 41.4%. In addition, in the assay on PMNs, the inhibition at 25 µM was 33.8%, the inhibition at 50 µM is 39.1% and the inhibition at 100 µM was 44.8%.
In the case of `CCCn1c(C#N)c(-c2ccccc2)c2cc(OC)c(OC)cc21` [Example 50], in assay [1] ([cpd] 5 μM), the “Chemokine-induced Adhesion in encephalitogenic lymphocytes, Mean counts ± S.D., in absence of MIP3-β stimulation” value was 81.7 ± 11.9 and the “Chemokine-induced Adhesion in encephalitogenic lymphocytes, Mean counts ± S.D., in presence of MIP3-β stimulation” value stood at 124.5 ± 8.1. Further, in assay [1] ([cpd] 50 μM), the “Chemokine-induced Adhesion in encephalitogenic lymphocytes, Mean counts ± S.D., in absence of MIP3-β stimulation” value was determined as 62.0 ± 4.0 and the “Chemokine-induced Adhesion in encephalitogenic lymphocytes, Mean counts ± S.D., in presence of MIP3-β stimulation” value was 92.0 ± 3.0.
As for `COC(=O)c1c(-c2ccc(OC)cc2)c2cc(OC)c(OC)cc2n1CCN1CCCC1` [Example 52], in assay [1] ([cpd] 1 μM), the “Chemokine-induced Adhesion in encephalitogenic lymphocytes, Mean counts ± S.D., in absence of MIP3-β stimulation” value was 51.9 ± 3.9 and the “Chemokine-induced Adhesion in encephalitogenic lymphocytes, Mean counts ± S.D., in presence of MIP3-β stimulation” value turned out to be 118.9 ± 4.0. In assay [1] ([cpd] 5 μM), the “Chemokine-induced Adhesion in encephalitogenic lymphocytes, Mean counts ± S.D., in absence of MIP3-β stimulation” value is recorded as 31.8 ± 3.1 and the “Chemokine-induced Adhesion in encephalitogenic lymphocytes, Mean counts ± S.D., in presence of MIP3-β stimulation” value is recorded as 103.2 ± 10.2. Further, in assay [1] ([cpd] 50 μM), the “Chemokine-induced Adhesion in encephalitogenic lymphocytes, Mean counts ± S.D., in absence of MIP3-β stimulation” value is given as 24.9 ± 12.8 and the “Chemokine-induced Adhesion in encephalitogenic lymphocytes, Mean counts ± S.D., in presence of MIP3-β stimulation” value was found to be 82.3 ± 8.1. In the assay with Lymphocytes, the inhibition at 25 µM is 45.9%, the inhibition at 50 µM is 53.5% and the inhibition at 100 µM was 58.9%. For the same compound, in the assay on PMNs, the inhibition at 25 µM was 0.8%, the inhibition at 50 µM was 11% and the inhibition at 100 µM is 6.1%.
For the compound `COc1ccc(-c2c(C#N)n(CCN3CCOCC3)c3cc(OC)c(OC)cc23)cc1` [Example 56], in assay [1] ([cpd] 5 μM), the “Chemokine-induced Adhesion in encephalitogenic lymphocytes, Mean counts ± S.D., in absence of MIP3-β stimulation” value is 64.1 ± 9.9 and the “Chemokine-induced Adhesion in encephalitogenic lymphocytes, Mean counts ± S.D., in presence of MIP3-β stimulation” value was 92.3 ± 2.3. Moreover, in assay [1] ([cpd] 50 μM), the “Chemokine-induced Adhesion in encephalitogenic lymphocytes, Mean counts ± S.D., in absence of MIP3-β stimulation” value was 49.7 ± 3.9 and the “Chemokine-induced Adhesion in encephalitogenic lymphocytes, Mean counts ± S.D., in presence of MIP3-β stimulation” value amounted to 79.4 ± 12.1. Further, in the assay on Lymphocytes, the inhibition at 25 µM was 0%, the inhibition at 50 µM is 12.6% and the inhibition at 100 µM is 72.8%. Further, in the assay with PMNs, the inhibition at 25 µM is 3.4%, the inhibition at 50 µM was 11.6% and the inhibition at 100 µM was 8.7%.
Regarding `COc1ccc(-c2c3n(c4cc(OC)c(OC)cc24)CCN(S(=O)(=O)C(C)C)C3)cc1` [Example 68], in assay [1] ([cpd] 5 μM), the “Chemokine-induced Adhesion in encephalitogenic lymphocytes, Mean counts ± S.D., in absence of MIP3-β stimulation” value amounted to 62.3 ± 9.0 and the “Chemokine-induced Adhesion in encephalitogenic lymphocytes, Mean counts ± S.D., in presence of MIP3-β stimulation” value came to 102.8 ± 5.5. Also, in assay [1] ([cpd] 50 μM), the “Chemokine-induced Adhesion in encephalitogenic lymphocytes, Mean counts ± S.D., in absence of MIP3-β stimulation” value worked out at 33.5 ± 6.0 and the “Chemokine-induced Adhesion in encephalitogenic lymphocytes, Mean counts ± S.D., in presence of MIP3-β stimulation” value amounted to 74.3 ± 3.9.
Take `COc1ccc(-c2c3n(c4cc(OC)c(OC)cc24)CCOC3)cc1` [Example 76]: in the assay on Lymphocytes, the inhibition at 25 µM is 30.1%, the inhibition at 50 µM was 40.3% and the inhibition at 100 µM is 48.3%. Moreover, in the assay on PMNs, the inhibition at 25 µM was 25.6%, the inhibition at 50 µM was 35.7% and the inhibition at 100 µM is 66.3%.
`CCOC(=O)c1[nH]c2cc(OC)c(OC)cc2c1-c1ccncc1` [Example 81]: in assay [1] ([cpd] 5 μM), the “Chemokine-induced Adhesion in encephalitogenic lymphocytes, Mean counts ± S.D., in absence of MIP3-β stimulation” value is listed as 56.2 ± 11.1 and the “Chemokine-induced Adhesion in encephalitogenic lymphocytes, Mean counts ± S.D., in presence of MIP3-β stimulation” value came out at 84.5 ± 8.8. Also, in assay [1] ([cpd] 50 μM), the “Chemokine-induced Adhesion in encephalitogenic lymphocytes, Mean counts ± S.D., in absence of MIP3-β stimulation” value was 41.3 ± 3.6 and the “Chemokine-induced Adhesion in encephalitogenic lymphocytes, Mean counts ± S.D., in presence of MIP3-β stimulation” value was found to be 99.2 ± 5.0. Moreover, in the assay with Lymphocytes, the inhibition at 25 µM is 4.5%, the inhibition at 50 µM was 12.7% and the inhibition at 100 µM was 34.9%. In the assay on PMNs, the inhibition at 25 µM is 14.4%, the inhibition at 50 µM was 0.8% and the inhibition at 100 µM is 0%.

These data come from patent US20080317857A1, “V-Atpase Inhibitors of Use in the Treatment of Septic Shock” (Brane Discovery S.r.l., priority 2005, published 2008).
